Source: patent US11534443B2, “Quinazoline compounds, preparation method, use, and pharmaceutical composition thereof” (INSTITUTE OF MATERIA MEDICA, CHINESE ACADEMY OF MEDICAL …, priority 2016, dated 2022)

How the values were obtained:
[1] = system: human lung cancer NCI-H460 subcutaneous xenografts; experiment: Xenograft efficacy in nude mice, NCI-H460; assay type: in vivo; conditions: for Growth inhibition: NCI-H460 xenograft, 16 days of dosing
Experimental: (§1) Human lung cancer NCI-H460 cells were collected under aseptic conditions, and the cell density was adjusted to 1×10^6 cells/mL with sterile saline, 0.2 mL of which was implanted into the back of the nude mice. When the tumor grew to a diameter of about 1 cm, it was removed under septic condition and cut into pieces of 1 mm×1 mm which was implanted into the back of the nude mice. When the tumor grew to 100-300 mm^3 after 6 days, the animals were randomly divided into groups and administration was started (marked as Day 1). The test compound was administered orally every day. Body weight was measured twice a week and the length and width of the tumor were measured with a vernier caliper. After 16 days of dosing, the nude mice were sacrificed by cervical dislocation and the tumor issues were exfoliated, weighed and photographed. Finally, the tumor inhibitory rate was calculated. The antitumor efficacy was evaluated by the tumor inhibitory rate. The results were shown in Table 3, Table 4, FIG. 1 and FIG. 2.
(§2) The tumor volume was calculated as follows: Tumor volume=(a×b^2)/2, where a and b represented the length and width of the tumor.
(§3) The percentage of tumor growth inhibition was calculated as follows: Tumor growth inhibition (%)=(1−T/C)×100, where T was the final volume of the tumor in the test compound group and C was the final volume of the tumor in the solvent control group.

[2] = system: human lung cancer cell NCI-H460; experiment: Tumor cell viability by MTT assay; assay type: cell-based; conditions: Homo sapiens, NCI-H460, 96 h
How it was run: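 NCI-H460 cells exposed to six to nine compound concentrations (DMSO below 0.2%, triplicate wells) for 96 hours at 37° C, 5% CO2. MTT added for 4 hours, formazan dissolved in DMSO and OD read at 570 nm against DMSO-treated controls.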

PI3Kα = PI3Kα (Homo sapiens (Human), UniProt P42336); experiment: Biochemical evaluation of activity of PI3Kα (Kinase-Glo luminescence kinase assay); conditions: 25 μM ATP, 50 μM PIP2, 1 h at room temperature
How it was run: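 Inhibition of PI3Kα was measured in vitro with a luciferase-based Kinase-Glo™ luminescence readout in white 384-well plates at room temperature. Compound diluted 25-fold in buffer (50 mM Hepes pH 7.5, 3 mM MgCl2, 100 mM NaCl, 1 mM EGTA, 0.03% CHAPS, 2 mM DTT) was mixed with enzyme, then PIP2/ATP substrate was added. Percent inhibition used enzyme-free and DMSO controls; IC50 was fitted with XLfit.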

[3] = system: human gastric cancer HGC-27 subcutaneous xenografts; experiment: Xenograft efficacy in nude mice, HGC-27; assay type: in vivo
Experimental: as §1, with “gastric” for “lung”, “HGC-27” for “NCI-H460”, “When the tumor grew to a diameter of about 1 cm, it was removed under septic condition and cut into pieces of 1 mm×1 mm which was implanted into the back of the nude mice.” left out, “0).” for “1).”, “20” for “16”, “rate.” for “rate. The results were shown in Table 3, Table 4, FIG. 1 and FIG. 2.”
as §2, §3
The percentage of tumor regression was calculated by 100×(final tumor volume-initial tumor volume)/initial tumor volume.

Sequence of PI3Kα (P42336 whole entry): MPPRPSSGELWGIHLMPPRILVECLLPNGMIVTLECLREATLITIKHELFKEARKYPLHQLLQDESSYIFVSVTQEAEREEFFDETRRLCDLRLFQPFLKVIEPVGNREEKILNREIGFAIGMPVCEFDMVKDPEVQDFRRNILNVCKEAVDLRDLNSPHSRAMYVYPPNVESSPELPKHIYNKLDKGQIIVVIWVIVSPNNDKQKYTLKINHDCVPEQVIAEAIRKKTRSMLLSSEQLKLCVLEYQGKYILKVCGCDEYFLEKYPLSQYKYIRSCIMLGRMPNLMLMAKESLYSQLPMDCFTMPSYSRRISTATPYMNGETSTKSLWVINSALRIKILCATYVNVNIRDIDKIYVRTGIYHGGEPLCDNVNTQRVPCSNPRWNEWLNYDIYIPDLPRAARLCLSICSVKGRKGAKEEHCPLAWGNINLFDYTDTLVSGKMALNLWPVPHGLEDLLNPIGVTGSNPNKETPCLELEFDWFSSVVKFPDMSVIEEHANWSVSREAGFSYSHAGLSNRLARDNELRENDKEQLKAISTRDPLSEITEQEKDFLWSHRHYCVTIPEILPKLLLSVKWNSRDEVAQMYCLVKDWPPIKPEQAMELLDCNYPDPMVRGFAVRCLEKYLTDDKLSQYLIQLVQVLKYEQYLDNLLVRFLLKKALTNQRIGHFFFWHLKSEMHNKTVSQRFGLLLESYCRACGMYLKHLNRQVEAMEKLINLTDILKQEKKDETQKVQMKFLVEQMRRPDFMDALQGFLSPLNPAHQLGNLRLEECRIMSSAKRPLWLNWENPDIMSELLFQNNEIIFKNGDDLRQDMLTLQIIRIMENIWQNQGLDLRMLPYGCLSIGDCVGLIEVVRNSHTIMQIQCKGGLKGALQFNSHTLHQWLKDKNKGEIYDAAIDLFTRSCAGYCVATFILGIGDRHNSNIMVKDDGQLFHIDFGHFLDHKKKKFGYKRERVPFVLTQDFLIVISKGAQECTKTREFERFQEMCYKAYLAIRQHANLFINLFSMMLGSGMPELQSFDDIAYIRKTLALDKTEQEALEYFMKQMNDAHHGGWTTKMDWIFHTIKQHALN
Sequence of PI3Kα (P27986 whole entry partner): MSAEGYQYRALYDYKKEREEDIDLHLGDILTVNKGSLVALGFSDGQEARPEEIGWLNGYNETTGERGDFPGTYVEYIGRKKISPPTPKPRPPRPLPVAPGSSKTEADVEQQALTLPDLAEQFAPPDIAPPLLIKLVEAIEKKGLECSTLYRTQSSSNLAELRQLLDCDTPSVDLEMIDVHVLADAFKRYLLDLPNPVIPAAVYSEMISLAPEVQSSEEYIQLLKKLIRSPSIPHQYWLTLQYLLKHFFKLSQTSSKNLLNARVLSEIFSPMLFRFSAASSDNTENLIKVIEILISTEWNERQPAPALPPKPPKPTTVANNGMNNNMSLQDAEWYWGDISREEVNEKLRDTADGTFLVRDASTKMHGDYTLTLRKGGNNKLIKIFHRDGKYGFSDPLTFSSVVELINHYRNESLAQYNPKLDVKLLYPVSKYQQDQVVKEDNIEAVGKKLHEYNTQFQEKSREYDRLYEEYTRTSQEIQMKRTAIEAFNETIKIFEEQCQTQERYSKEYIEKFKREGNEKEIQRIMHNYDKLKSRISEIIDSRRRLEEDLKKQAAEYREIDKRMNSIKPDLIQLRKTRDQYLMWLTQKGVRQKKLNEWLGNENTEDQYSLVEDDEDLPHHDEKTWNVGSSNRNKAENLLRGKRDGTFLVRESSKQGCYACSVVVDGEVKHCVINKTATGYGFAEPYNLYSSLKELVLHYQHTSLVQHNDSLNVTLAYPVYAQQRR

Row | Structure (SMILES) | IC50 [2] [nM] | IC50 (PI3Kα) [nM] | other results
1 | COc1ncc(-c2cc(O[C@@H]3CCOC3)c3nc(N)nc(C)c3c2)cc1NS(=O)(=O)c1ccc(F)cc1F [Example 9, (R)—N-(5-(2-amino-4-methyl-8-((tetrahydrofuran-3-yl)oxy)quinazolin-6-yl)-2-methoxypyridin-3-yl)-2,4-difluorobenzenesulfonamide] | 93 | 0.86 | inhibitory effect against growth of NCI-H460 subcutaneous xenografts (in words) [1]: significant inhibitory effects; Growth inhibition ([1]; 5 mg/kg/day orally): 39.2%; Growth inhibition ([1]; 10 mg/kg/day orally): 56.3%; Growth inhibition ([1]; 20 mg/kg/day orally): 77.0%
2 | CNc1nc(C)c2cc(-c3cnc(OC)c(NS(=O)(=O)c4ccc(F)cc4F)c3)cc(O[C@@H]3CCOC3)c2n1 [Example 32, (R)—N-(2-methoxy-5-(4-methyl-2-(methylamino)-8-((tetrahydrofuran-3-yl)oxy)quinazolin-6-yl)pyridin-3-yl)-2,4-difluorobenzenesulfonamide] | – | 0.82 | inhibitory effect on growth of HGC-27 subcutaneous xenografts (in words) [3]: significant inhibitory effect; Growth inhibition ([3]; HGC-27 xenograft, 5 mg/kg/day orally, 20 days of dosing): 76.9%; Regression ([3]; HGC-27 xenograft, 10 mg/kg/day orally, 20 days of dosing): 70.5%
3 | COc1ncc(-c2cc(OC3CCOCC3)c3ncnc(C)c3c2)cc1NS(=O)(=O)c1ccc(F)cc1F [Example 44, N-(2-methoxy-5-(4-methyl-8-((tetrahydro-2H-pyran-4-yl)oxy)quinazolin-6-yl)pyridin-3-yl)-2,4-difluorobenzenesulfonamide] | 29 | 0.65 | inhibitory effect against growth of NCI-H460 subcutaneous xenografts (in words) [1]: significant inhibitory effects; Growth inhibition ([1]; 1 mg/kg/day orally): 60.3%
4 | COc1ncc(-c2cc(OCC3CCCO3)c3ncnc(C)c3c2)cc1NS(=O)(=O)c1ccc(F)cc1F (stereo not drawn) [Example 60, N-(2-methoxy-5-(4-methyl-8-((tetrahydrofuran-2-yl)methoxy)quinazolin-6-yl)pyridin-3-yl)-2,4-difluorobenzenesulfonamide] | 240 | 1.3 | –
5 | COc1ncc(-c2cc(OCC3CCOC3)c3ncnc(C)c3c2)cc1NS(=O)(=O)c1ccc(F)cc1F (stereo not drawn) [Example 61, N-(2-methoxy-5-(4-methyl-8-((tetrahydrofuran-3-yl)methoxy)quinazolin-6-yl)pyridin-3-yl)-2,4-difluorobenzenesulfonamide] | 45 | 1 | –
6 | COc1ncc(-c2cc(OCCN3CCCC3)c3ncnc(C)c3c2)cc1NS(=O)(=O)c1ccc(F)cc1F [Example 63, N-(2-methoxy-5-(4-methyl-8-(2-(pyrrolidin-1-yl)ethoxy)quinazolin-6-yl)pyridin-3-yl)-2,4-difluorobenzenesulfonamide] | 2100 | 10 | –
7 | COc1ncc(-c2cc(OCCn3cccn3)c3ncnc(C)c3c2)cc1NS(=O)(=O)c1ccc(F)cc1F [Example 64, N-(5-(8-(2-(1H-pyrazol-1-yl)ethoxy)-4-methylquinazolin-6-yl)-2-methoxypyridin-3-yl)-2,4-difluorobenzenesulfonamide] | 390 | 1.5 | –
8 | COc1ncc(-c2cc(OCC3CCN(C)CC3)c3ncnc(C)c3c2)cc1NS(=O)(=O)c1ccc(F)cc1F [Example 66, N-(2-methoxy-5-(4-methyl-8-((1-methylpiperidin-4-yl)methoxy)quinazolin-6-yl)pyridin-3-yl)-2,4-difluoro-benzenesulfonamide] | 230 | 1.7 | –
9 | COc1ncc(-c2cc(OC3CCC3)c3ncnc(C)c3c2)cc1NS(=O)(=O)c1ccc(F)cc1F [Example 70, N-(5-(8-cyclobutoxy-4-methylquinazolin-6-yl)-2-methoxypyridin-3-yl)-2,4-difluorobenzenesulfonamide] | 22 | 0.9 | –
10 | Cc1ncnc2c(OC3CCOCC3)cc(-c3cnc(Cl)c(NS(=O)(=O)c4ccc(F)cc4)c3)cc12 [Example 73, N-(2-chloro-5-(4-methyl-8-((tetrahydro-2H-pyran-4-yl)oxy)quinazolin-6-yl)pyridin-3-yl)-4-fluorobenzenesulfonamide] | 740 | 1.3 | –
11 | Cc1ncc(-c2cc(OC3CCOCC3)c3ncnc(C)c3c2)cc1NS(=O)(=O)c1ccc(F)cc1F [Example 74, N-(2-methyl-5-(4-methyl-8-((tetrahydro-2H-pyran-4-yl)oxy)quinazolin-6-yl)pyridin-3-yl)-2,4-difluorobenzenesulfonamide] | 870 | 1.1 | –

Second part, led by results:

Row | IC50 [2] [nM] | IC50 (PI3Kα) [nM] | Structure (SMILES) | other results
12 | 260 | 2.5 | COc1ncc(-c2cc(OC3CCN(C)CC3)c3ncnc(C)c3c2)cc1NS(=O)(=O)c1ccc(F)cc1F [Example 62, N-(2-methoxy-5-(4-methyl-8-((1-methylpiperidin-4-yl)oxy)quinazolin-6-yl)pyridin-3-yl)-2,4-difluoro-benzenesulfonamide] | –
13 | 3500 | 6.1 | COc1ncc(-c2cc(OCCN(C)C)c3ncnc(C)c3c2)cc1NS(=O)(=O)c1ccc(F)cc1F [Example 67, N-(5-(8-(2-(dimethylamino)ethoxy)-4-methylquinazolin-6-yl)-2-methoxypyridin-3-yl)-2,4-difluorobenzenesulfonamide] | –
14 | 340 | 1.6 | COc1ncc(-c2cc(OCC3CC3)c3ncnc(C)c3c2)cc1NS(=O)(=O)c1ccc(F)cc1F [Example 68, N-(5-(8-(cyclopropylmethoxy)-4-methylquinazolin-6-yl)-2-methoxypyridin-3-yl)-2,4-difluorobenzenesulfonamide] | –
15 | 50 | 2.2 | COc1ncc(-c2cc(OC(C)C)c3ncnc(C)c3c2)cc1NS(=O)(=O)c1ccc(F)cc1F [Example 69, N-(5-(8-isopropoxy-4-methylquinazolin-6-yl)-2-methoxypyridin-3-yl)-2,4-difluorobenzenesulfonamide] | –
16 | 1000 | 1.9 | COc1ncc(-c2cc(OC(F)F)c3ncnc(C)c3c2)cc1NS(=O)(=O)c1ccc(F)cc1F [Example 71, N-(5-(8-(difluoromethoxy)-4-methylquinazolin-6-yl)-2-methoxypyridin-3-yl)-2,4-difluorobenzenesulfonamide] | –
17 | 500 | 0.7 | COc1ncc(-c2cc(OC)c3ncnc(C)c3c2)cc1NS(=O)(=O)c1ccc(F)cc1F [Example 72, N-(2-methoxy-5-(8-methoxy-4-methylquinazolin-6-yl)pyridin-3-yl)-2,4-difluorobenzenesulfonamide] | –
